ChEMBL document CHEMBL5390317, “Novel Indane-Containing NBTIs with Potent Anti-Gram-Negative Activity and Minimal hERG Inhibition” (ACS Med Chem Lett, 2023)
Converted amounts (≈) assume the structure as drawn.

Key:
[1] = system: Pseudomonas aeruginosa; assay: Antibacterial activity against Pseudomonas aeruginosa NCTC 11451 assessed as inhibition in bacterial growth incubated for 20 to 24 hrs by CLSI based broth microdilution method; format: functional; conditions: Pseudomonas aeruginosa, NCTC 11451, time 20-24 hrs; read-out: MIC
[2] = biological target: DNA gyrase (Escherichia coli, UniProt P0AES4+P0AES6); assay: Inhibition of Escherichia coli DNA gyrase incubated for 80 mins by Transcreener ADP2 FI assay; format: protein-complex assay
[3] = system: Acinetobacter baumannii; assay: Antibacterial activity against Acinetobacter baumannii ATCC BAA-747 assessed as inhibition in bacterial growth incubated for 20 to 24 hrs by CLSI based broth microdilution method; format: functional; conditions: Acinetobacter baumannii, ATCC BAA-747, time 20-24 hrs; read-out: MIC
[4] = system: Klebsiella pneumoniae; assay: Antibacterial activity against Klebsiella pneumoniae ATCC 700603 assessed as inhibition in bacterial growth incubated for 20 to 24 hrs by CLSI based broth microdilution method; format: functional; conditions: Klebsiella pneumoniae, ATCC 700603, time 20-24 hrs; read-out: MIC
[5] = system: Acinetobacter baumannii; assay: Antibacterial activity against Acinetobacter baumannii ATCC 51432 assessed as inhibition in bacterial growth incubated for 20 to 24 hrs by CLSI based broth microdilution method; format: functional; conditions: Acinetobacter baumannii, ATCC 51432, time 20-24 hrs; read-out: MIC
[6] = system: Pseudomonas aeruginosa; assay: Antibacterial activity against Pseudomonas aeruginosa ATCC 27853 assessed as inhibition in bacterial growth incubated for 20 to 24 hrs by CLSI based broth microdilution method; format: functional; conditions: time 20-24 hrs
[7] = system: Pseudomonas aeruginosa; assay: Antibacterial activity against Pseudomonas aeruginosa NCTC 13437 assessed as inhibition in bacterial growth incubated for 20 to 24 hrs by CLSI based broth microdilution method; format: functional; conditions: Pseudomonas aeruginosa, NCTC 13437, time 20-24 hrs; read-out: MIC
[8] = system: Escherichia coli; assay: Antibacterial activity against Escherichia coli ATCC 25922 assessed as inhibition in bacterial growth incubated for 20 to 24 hrs by CLSI based broth microdilution method; format: functional; conditions: time 20-24 hrs
[9] = system: Escherichia coli; assay: Antibacterial activity against Escherichia coli ATCC BAA-2340 assessed as inhibition in bacterial growth incubated for 20 to 24 hrs by CLSI based broth microdilution method; format: functional; conditions: Escherichia coli, ATCC BAA-2340, time 20-24 hrs; read-out: MIC
[10] = system: Staphylococcus aureus; assay: Antibacterial activity against Staphylococcus aureus ATCC BAA-1556 assessed as inhibition in bacterial growth incubated for 20 to 24 hrs by CLSI based broth microdilution method; format: functional; conditions: Staphylococcus aureus, ATCC BAA-1556, time 20-24 hrs; read-out: MIC
[11] = system: Klebsiella pneumoniae; assay: Antibacterial activity against Klebsiella pneumoniae ATCC BAA-2146 assessed as inhibition in bacterial growth incubated for 20 to 24 hrs by CLSI based broth microdilution method; format: functional; conditions: Klebsiella pneumoniae, ATCC BAA-2146, time 20-24 hrs; read-out: MIC
[12] = biological target: Voltage-gated inwardly rectifying potassium channel KCNH2 (Homo sapiens, UniProt Q12809); assay: (§1) Inhibition of hERG potassium channel expressed in CHO cells by electrophysiological patch clamp assay; format: toxicity, cell-based
[13] = biological target: T1, hERG (KCNH2) (Homo sapiens, UniProt Q12809); assay: as §1; format: toxicity, cell-based; conditions: human, CHO cells expressing hERG
[14] = system: Staphylococcus aureus; assay: Antibacterial activity against Staphylococcus aureus ATCC 29213 assessed as inhibition in bacterial growth incubated for 20 to 24 hrs by CLSI based broth microdilution method; format: functional; conditions: Staphylococcus aureus, ATCC 29213; time 20-24 hrs; read-out: MIC
[15] = system: Escherichia coli; assay: Antibacterial activity against Escherichia coli K-12 BW25113 assessed as inhibition in bacterial growth incubated for 20 to 24 hrs by CLSI based broth microdilution method; format: functional; conditions: Escherichia coli, K-12 BW25113, time 20-24 hrs; read-out: MIC
[16] = system: Klebsiella pneumoniae; assay: Antibacterial activity against Klebsiella pneumoniae ATCC BAA-1705 assessed as inhibition in bacterial growth incubated for 20 to 24 hrs by CLSI based broth microdilution method; format: functional; conditions: time 20-24 hrs
[17] = system: Acinetobacter baumannii; assay: Antibacterial activity against Acinetobacter baumannii ATCC 19606 assessed as inhibition in bacterial growth incubated for 20 to 24 hrs by CLSI based broth microdilution method; format: functional; conditions: time 20-24 hrs
[18] = system: Escherichia coli; assay: Antibacterial activity against Escherichia coli ATCC 35218 assessed as inhibition in bacterial growth incubated for 20 to 24 hrs by CLSI based broth microdilution method; format: functional; conditions: Escherichia coli, ATCC 35218, time 20-24 hrs; read-out: MIC
[19] = Inhibition of Escherichia coli topoisomerase 4 incubated for 120 mins by Transcreener ADP2 FI assay
[20] = system: Escherichia coli; assay: Antibacterial activity against Escherichia coli K-12 BW25113 deltaTolC assessed as inhibition in bacterial growth incubated for 20 to 24 hrs by CLSI based broth microdilution method; format: functional; conditions: time 20-24 hrs
[21] = biological target: T1, hERG (KCNH2); assay: Inhibition of hERG potassium channel expressed in CHO cells at 1 uM by electrophysiological patch clamp assay relative to control; format: toxicity, cell-based; conditions: CHO cells expressing hERG
[22] = biological target: T1, hERG (KCNH2); assay: Inhibition of hERG potassium channel expressed in CHO cells at 10 uM by electrophysiological patch clamp assay relative to control; format: toxicity, cell-based; conditions: CHO cells expressing hERG
[23] = system: Klebsiella pneumoniae; assay: Antibacterial activity against Klebsiella pneumoniae ATCC 10031 assessed as inhibition in bacterial growth incubated for 20 to 24 hrs by CLSI based broth microdilution method; format: functional; conditions: time 20-24 hrs
[24] = Stability in mouse plasma assessed as parent compound remaining after 5 hrs relative to control; format: ADME, cell-free; conditions: read-out: Stability
[25] = Lipophilicity, log D of compound at pH 7.4; format: physicochemical; conditions: buffer

T1 sequence (Q12809 whole entry): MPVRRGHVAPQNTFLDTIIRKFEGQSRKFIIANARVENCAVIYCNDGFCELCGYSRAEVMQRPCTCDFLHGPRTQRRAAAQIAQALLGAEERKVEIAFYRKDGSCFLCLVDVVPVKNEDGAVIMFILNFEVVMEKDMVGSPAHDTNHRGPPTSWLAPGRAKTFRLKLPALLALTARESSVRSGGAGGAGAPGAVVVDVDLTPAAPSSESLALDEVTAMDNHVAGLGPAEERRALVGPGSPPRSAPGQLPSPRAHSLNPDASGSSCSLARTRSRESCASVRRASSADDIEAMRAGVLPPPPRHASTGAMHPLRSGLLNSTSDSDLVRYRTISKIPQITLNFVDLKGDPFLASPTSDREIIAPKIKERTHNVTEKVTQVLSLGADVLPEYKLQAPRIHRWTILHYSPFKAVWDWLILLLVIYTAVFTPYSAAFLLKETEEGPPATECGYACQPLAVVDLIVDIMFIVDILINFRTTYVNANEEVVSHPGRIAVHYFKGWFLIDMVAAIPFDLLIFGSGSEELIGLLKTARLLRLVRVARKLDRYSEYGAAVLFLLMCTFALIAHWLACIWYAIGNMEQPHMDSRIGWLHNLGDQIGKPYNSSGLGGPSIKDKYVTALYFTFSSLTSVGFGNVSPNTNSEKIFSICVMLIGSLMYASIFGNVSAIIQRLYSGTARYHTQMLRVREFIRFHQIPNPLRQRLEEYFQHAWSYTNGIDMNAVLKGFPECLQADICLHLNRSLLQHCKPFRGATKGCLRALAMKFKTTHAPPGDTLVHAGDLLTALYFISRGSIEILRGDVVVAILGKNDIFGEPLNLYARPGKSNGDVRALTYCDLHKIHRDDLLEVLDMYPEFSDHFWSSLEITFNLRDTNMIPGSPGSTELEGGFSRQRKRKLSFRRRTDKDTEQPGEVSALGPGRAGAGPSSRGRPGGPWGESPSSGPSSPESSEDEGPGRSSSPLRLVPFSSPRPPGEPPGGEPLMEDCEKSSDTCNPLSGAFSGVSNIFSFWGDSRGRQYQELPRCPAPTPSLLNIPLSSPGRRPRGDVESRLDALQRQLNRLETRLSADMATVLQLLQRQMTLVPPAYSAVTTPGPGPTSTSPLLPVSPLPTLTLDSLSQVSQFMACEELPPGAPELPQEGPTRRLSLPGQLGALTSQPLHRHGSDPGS
Sequence of Voltage-gated inwardly rectifying potassium channel KCNH2 (Q12809 whole entry): as above

Row | Compound | MIC [1] [µg/mL] | IC50 [2] [nM] | MIC [3] [µg/mL] | MIC [4] [µg/mL] | MIC [5] [µg/mL] | MIC [6] [µg/mL] | MIC [7] [µg/mL] | MIC [8] [µg/mL] | MIC [9] [µg/mL] | MIC [10] [µg/mL] | MIC [11] [µg/mL] | IC50 [12] [nM] | MIC [14] [µg/mL] | MIC [15] [µg/mL] | MIC [16] [µg/mL] | MIC [17] [µg/mL] | MIC [18] [µg/mL] | IC50 [19] [nM] | MIC [20] [µg/mL] | MIC [23] [µg/mL] | further results
1 | N#Cc1cc(OCC2CNC2)cc2c1CC(CNCCC1CN(c3ccc4c(n3)NC(=O)CO4)C(=O)O1)C2 (stereo not drawn) | 4 (≈ 7.71 µM) | 38 | 8 (≈ 15.4 µM) | 32 (≈ 61.7 µM) | 16 (≈ 30.9 µM) | 0.5 (≈ 0.964 µM) | 4 (≈ 7.71 µM) | 2 (≈ 3.86 µM) | 1 (≈ 1.93 µM) | 1 (≈ 1.93 µM) | 64 (≈ 123 µM) | > 20000 | 0.5 (≈ 0.964 µM) | 1 (≈ 1.93 µM) | 16 (≈ 30.9 µM) | 32 (≈ 61.7 µM) | 2 (≈ 3.86 µM) | 19 | ≤ 0.06 | 0.125 (≈ 0.241 µM) | IC20 [13]: > 10000 nM; inhibition at 1 µM [21]: < 1%; inhibition at 10 µM [22]: < 1%
2 | O=C(CN1CCC1)Nc1cc(F)c2c(c1)CC(CNCCC1CN(c3cnc4c(n3)NC(=O)CO4)C(=O)O1)C2 (stereo not drawn) | 1 (≈ 1.85 µM) | 14 | 0.125 (≈ 0.232 µM) | 1 (≈ 1.85 µM) | 8 (≈ 14.8 µM) | 0.25 (≈ 0.463 µM) | 1 (≈ 1.85 µM) | 0.125 (≈ 0.232 µM) | 0.125 (≈ 0.232 µM) | 2 (≈ 3.71 µM) | 4 (≈ 7.41 µM) | > 20000 | 1 (≈ 1.85 µM) | ≤ 0.06 | 1 (≈ 1.85 µM) | 8 (≈ 14.8 µM) | 0.125 (≈ 0.232 µM) | 6 | ≤ 0.06 | ≤ 0.06 | remaining at 5 h [24]: 10%; IC20 [13]: > 10000 nM; inhibition at 1 µM [21]: < 1%; inhibition at 10 µM [22]: < 1%
3 | CC(N)COc1cc(F)c2c(c1)CC(CCOCC1CN(c3cnc4c(n3)NC(=O)CO4)C(=O)O1)C2 (stereo not drawn) | 64 (≈ 128 µM) | 170 | 4 (≈ 7.98 µM) | 64 (≈ 128 µM) | 8 (≈ 16 µM) | 8 (≈ 16 µM) | 32 (≈ 63.8 µM) | 8 (≈ 16 µM) | 16 (≈ 31.9 µM) | 1 (≈ 1.99 µM) | 64 (≈ 128 µM) |  | 0.25 (≈ 0.498 µM) | 4 (≈ 7.98 µM) | 64 (≈ 128 µM) | 8 (≈ 16 µM) | 8 (≈ 16 µM) | 27 | ≤ 0.06 | 0.125 (≈ 0.249 µM) | logD [25]: 0.22
4 | N#Cc1cc(OCC2(N)CC2)cc2c1CC(CNCCC1CN(c3ccc4c(n3)NC(=O)CO4)C(=O)O1)C2 (stereo not drawn) | 1 (≈ 1.93 µM) | 35 | ≤ 0.06 | 1 (≈ 1.93 µM) | 2 (≈ 3.86 µM) | 0.25 (≈ 0.482 µM) | 0.5 (≈ 0.964 µM) | ≤ 0.06 | ≤ 0.06 | ≤ 0.06 | 4 (≈ 7.71 µM) | > 20000 | ≤ 0.06 | ≤ 0.06 | 1 (≈ 1.93 µM) | 1 (≈ 1.93 µM) | 0.125 (≈ 0.241 µM) | 19 | ≤ 0.06 | ≤ 0.06 | IC20 [13]: 6400 nM; inhibition at 1 µM [21]: < 1%; inhibition at 10 µM [22]: 28%
5 | CC(N)COc1cc(F)c2c(c1)CC(CNCCC1CN(c3ccc4c(n3)NC(=O)CO4)C(=O)O1)C2 (stereo not drawn) | 2 (≈ 4 µM) | 47 | 0.125 (≈ 0.25 µM) | 2 (≈ 4 µM) | 2 (≈ 4 µM) | 0.25 (≈ 0.5 µM) | 1 (≈ 2 µM) | 0.25 (≈ 0.5 µM) | 0.25 (≈ 0.5 µM) | 0.125 (≈ 0.25 µM) | 2 (≈ 4 µM) | > 20000 | ≤ 0.06 | ≤ 0.06 | 1 (≈ 2 µM) | 2 (≈ 4 µM) | 0.25 (≈ 0.5 µM) | 39 | ≤ 0.06 | ≤ 0.06 | IC20 [13]: > 10000 nM; inhibition at 1 µM [21]: < 1%; inhibition at 10 µM [22]: 3.9%
